42 substances from patent publication US9029337B2, “Modulation of factor 7 expression” (Isis Pharmaceuticals, Inc., priority 2007, dated 2015) can be followed below.

Strand notation (5' to 3'): a small letter for the sugar, then the base; units joined by * are phosphorothioate-linked, units joined directly phosphodiester-linked; [ ] holds rarer units or linkages, { } end groups; capitals alone tell only the bases. e = 2'-O-(2-methoxyethyl) (MOE); [5mC] = 5-methylcytosine; d = 2'-deoxy (DNA)

The first data set relates to human Factor 7 mRNA. The experiment in a line: Antisense inhibition of human Factor 7 mRNA in HepB3 cells, 50 nM antisense oligonucleotide, lipofectin. The format is cell-based. The settings on record: Table 13 (microwalk), 50 nM, lipofectin, approximately 24 hours. A digest of the protocol: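 4,000 cells/well; ~24 h exposure; RNA isolated; probe set RTS 2927; normalised to RIBOGREEN® total RNA; % inhibition vs untreated.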
Regarding “422226 (antisense e[5mC]*eA*dT*dG*dG*dT*dG*dA*dT*dG*d[5mC]*dT*dT*d[5mC]*dT*eG*eA*eA*eT*eT) [compound 422226]”, the “% Inhibition” value came to 41%.
Consider “422227 (antisense eG*e[5mC]*dA*dT*dG*dG*dT*dG*dA*dT*dG*d[5mC]*dT*dT*d[5mC]*eT*eG*eA*eA*eT) [compound 422227]”, for which the “% Inhibition” value was determined as 67%.
Regarding “422230 (antisense e[5mC]*eA*dT*dG*d[5mC]*dA*dT*dG*dG*dT*dG*dA*dT*dG*d[5mC]*eT*eT*e[5mC]*eT*eG) [compound 422230]”, the “% Inhibition” value was found to be 65%.

The data set is the same for the next values; noted with them: gapmers targeted to nucleobases 4868 to 4899 of SEQ ID NO: 1, Table 8.
For “422216 (antisense eA*eG*eT*dT*d[5mC]*dT*dG*d[5mC]*dA*dG*dG*dA*dG*d[5mC]*dG*dG*d[5mC]*e[5mC]*eT*eA) [compound 422216]”, the “% Inhibition of human Factor 7 mRNA levels” value is recorded as 68%.
For “422218 (antisense e[5mC]*eG*eA*dG*dT*dT*d[5mC]*dT*dG*d[5mC]*dA*dG*dG*dA*dG*d[5mC]*dG*eG*e[5mC]*e[5mC]) [compound 422218]”, the “% Inhibition of human Factor 7 mRNA levels” value is 70%.
For “422219 (antisense e[5mC]*e[5mC]*eG*dA*dG*dT*dT*d[5mC]*dT*dG*d[5mC]*dA*dG*dG*dA*dG*d[5mC]*eG*eG*e[5mC]) [compound 422219]”, the “% Inhibition of human Factor 7 mRNA levels” value is recorded as 65%.
On to “422220 (antisense e[5mC]*e[5mC]*e[5mC]*dG*dA*dG*dT*dT*d[5mC]*dT*dG*d[5mC]*dA*dG*dG*dA*dG*e[5mC]*eG*eG) [compound 422220]”, for which the “% Inhibition of human Factor 7 mRNA levels” value amounted to 59%.
“422221 (antisense eG*e[5mC]*e[5mC]*d[5mC]*dG*dA*dG*dT*dT*d[5mC]*dT*dG*d[5mC]*dA*dG*dG*dA*eG*e[5mC]*eG) [compound 422221]”: the “% Inhibition of human Factor 7 mRNA levels” value was found to be 59%.
As to “422222 (antisense eA*eG*e[5mC]*d[5mC]*d[5mC]*dG*dA*dG*dT*dT*d[5mC]*dT*dG*d[5mC]*dA*dG*dG*eA*eG*e[5mC]) [compound 422222]”, the “% Inhibition of human Factor 7 mRNA levels” value was determined as 55%.
As for “422223 (antisense eG*eA*eG*d[5mC]*d[5mC]*d[5mC]*dG*dA*dG*dT*dT*d[5mC]*dT*dG*d[5mC]*dA*dG*eG*eA*eG) [compound 422223]”, the “% Inhibition of human Factor 7 mRNA levels” value came to 48%.
In the case of “422224 (antisense eG*eG*eA*dG*d[5mC]*d[5mC]*d[5mC]*dG*dA*dG*dT*dT*d[5mC]*dT*dG*d[5mC]*dA*eG*eG*eA) [compound 422224]”, the “% Inhibition of human Factor 7 mRNA levels” value turned out to be 62%.
Regarding “422225 (antisense eA*eG*eG*dA*dG*d[5mC]*d[5mC]*d[5mC]*dG*dA*dG*dT*dT*d[5mC]*dT*dG*d[5mC]*eA*eG*eG) [compound 422225]”, the “% Inhibition of human Factor 7 mRNA levels” value is recorded as 56%.

Staying with this data set, now noted: oligonucleotides targeted to nucleobases 11830 to 11869 of SEQ ID NO: 1 (Table 9).
In the case of “422231 (antisense eT*e[5mC]*dA*dG*dG*dG*d[5mC]*dT*dG*dG*dT*dT*dT*dT*dG*eG*eA*eG*eG*eA) [compound 422231]”, the “% Inhibition (human Factor 7 mRNA levels)” value is reported as 22%.
Turning to “422232 (antisense eG*eT*d[5mC]*dA*dG*dG*dG*d[5mC]*dT*dG*dG*dT*dT*dT*dT*eG*eG*eA*eG*eG) [compound 422232]”, the “% Inhibition (human Factor 7 mRNA levels)” value is reported as 41%.
Still for that read-out and setting: in the case of “422233 (antisense eG*eG*dT*d[5mC]*dA*dG*dG*dG*d[5mC]*dT*dG*dG*dT*dT*dT*eT*eG*eG*eA*eG) [compound 422233]” it was 46%; in that of “422234 (antisense eT*eG*dG*dT*d[5mC]*dA*dG*dG*dG*d[5mC]*dT*dG*dG*dT*dT*eT*eT*eG*eG*eA) [compound 422234]”, 62%.
Regarding “422235 (antisense eA*eT*dG*dG*dT*d[5mC]*dA*dG*dG*dG*d[5mC]*dT*dG*dG*dT*eT*eT*eT*eG*eG) [compound 422235]”, the “% Inhibition (human Factor 7 mRNA levels)” value was 50%.
In the case of “422236 (antisense eA*eA*dT*dG*dG*dT*d[5mC]*dA*dG*dG*dG*d[5mC]*dT*dG*dG*eT*eT*eT*eT*eG) [compound 422236]”, the “% Inhibition (human Factor 7 mRNA levels)” value is listed as 44%.
For the substance “422237 (antisense e[5mC]*eA*dA*dT*dG*dG*dT*d[5mC]*dA*dG*dG*dG*d[5mC]*dT*dG*eG*eT*eT*eT*eT) [compound 422237]”, the “% Inhibition (human Factor 7 mRNA levels)” value came out at 50%.
For “422238 (antisense eA*e[5mC]*dA*dA*dT*dG*dG*dT*d[5mC]*dA*dG*dG*dG*d[5mC]*dT*eG*eG*eT*eT*eT) [compound 422238]”, the “% Inhibition (human Factor 7 mRNA levels)” value is on record as 64%.
Regarding “422239 (antisense eG*eA*d[5mC]*dA*dA*dT*dG*dG*dT*d[5mC]*dA*dG*dG*dG*d[5mC]*eT*eG*eG*eT*eT) [compound 422239]”, the “% Inhibition (human Factor 7 mRNA levels)” value came to 67%.
Regarding “422240 (antisense eA*eG*dA*d[5mC]*dA*dA*dT*dG*dG*dT*d[5mC]*dA*dG*dG*dG*e[5mC]*eT*eG*eG*eT) [compound 422240]”, the “% Inhibition (human Factor 7 mRNA levels)” value is reported as 66%.
Consider “422241 (antisense eG*eA*dG*dA*d[5mC]*dA*dA*dT*dG*dG*dT*d[5mC]*dA*dG*dG*eG*e[5mC]*eT*eG*eG) [compound 422241]”, for which the “% Inhibition (human Factor 7 mRNA levels)” value came out at 61%.
As to “422242 (antisense eG*eG*dA*dG*dA*d[5mC]*dA*dA*dT*dG*dG*dT*d[5mC]*dA*dG*eG*eG*e[5mC]*eT*eG) [compound 422242]”, the “% Inhibition (human Factor 7 mRNA levels)” value was found to be 64%.
Consider “422243 (antisense eA*eG*dG*dA*dG*dA*d[5mC]*dA*dA*dT*dG*dG*dT*d[5mC]*dA*eG*eG*eG*e[5mC]*eT) [compound 422243]”, for which the “% Inhibition (human Factor 7 mRNA levels)” value was 62%.
Same read-out and setting: in the case of “422244 (antisense eG*eA*dG*dG*dA*dG*dA*d[5mC]*dA*dA*dT*dG*dG*dT*d[5mC]*eA*eG*eG*eG*e[5mC]) [compound 422244]” it was 55%; in that of “422245 (antisense eT*eG*dA*dG*dG*dA*dG*dA*d[5mC]*dA*dA*dT*dG*dG*dT*e[5mC]*eA*eG*eG*eG) [compound 422245]”, 24%; in that of “422246 (antisense e[5mC]*eT*dG*dA*dG*dG*dA*dG*dA*d[5mC]*dA*dA*dT*dG*dG*eT*e[5mC]*eA*eG*eG) [compound 422246]”, 46%.
Regarding “422247 (antisense eG*e[5mC]*dT*dG*dA*dG*dG*dA*dG*dA*d[5mC]*dA*dA*dT*dG*eG*eT*e[5mC]*eA*eG) [compound 422247]”, the “% Inhibition (human Factor 7 mRNA levels)” value is on record as 36%.
For “422248 (antisense eG*eG*d[5mC]*dT*dG*dA*dG*dG*dA*dG*dA*d[5mC]*dA*dA*dT*eG*eG*eT*e[5mC]*eA) [compound 422248]”, the “% Inhibition (human Factor 7 mRNA levels)” value is listed as 60%.
In the case of “422249 (antisense eT*eG*dG*d[5mC]*dT*dG*dA*dG*dG*dA*dG*dA*d[5mC]*dA*dA*eT*eG*eG*eT*e[5mC]) [compound 422249]”, the “% Inhibition (human Factor 7 mRNA levels)” value amounted to 52%.
On to “422250 (antisense e[5mC]*eT*dG*dG*d[5mC]*dT*dG*dA*dG*dG*dA*dG*dA*d[5mC]*dA*eA*eT*eG*eG*eT) [compound 422250]”, for which the “% Inhibition (human Factor 7 mRNA levels)” value is 54%.
Turning to “422251 (antisense eG*e[5mC]*dT*dG*dG*d[5mC]*dT*dG*dA*dG*dG*dA*dG*dA*d[5mC]*eA*eA*eT*eG*eG) [compound 422251]”, the “% Inhibition (human Factor 7 mRNA levels)” value was 36%.

Still in this data set, the particulars now being: oligonucleotides targeted to nucleobases 13760 to 13789 of SEQ ID NO: 1 (Table 10).
In the case of “422253 (antisense e[5mC]*e[5mC]*dG*d[5mC]*d[5mC]*dG*dG*d[5mC]*dT*d[5mC]*dT*dG*d[5mC]*dT*d[5mC]*eA*eT*e[5mC]*e[5mC]*e[5mC]) [compound 422253]”, the “% Inhibition (human Factor 7 mRNA levels)” value is recorded as 61%.
As for “422254 (antisense e[5mC]*e[5mC]*d[5mC]*dG*d[5mC]*d[5mC]*dG*dG*d[5mC]*dT*d[5mC]*dT*dG*d[5mC]*dT*e[5mC]*eA*eT*e[5mC]*e[5mC]) [compound 422254]”, the “% Inhibition (human Factor 7 mRNA levels)” value is given as 42%.
On to “422255 (antisense eA*e[5mC]*d[5mC]*d[5mC]*dG*d[5mC]*d[5mC]*dG*dG*d[5mC]*dT*d[5mC]*dT*dG*d[5mC]*eT*e[5mC]*eA*eT*e[5mC]) [compound 422255]”, for which the “% Inhibition (human Factor 7 mRNA levels)” value was 30%.
On to “422256 (antisense e[5mC]*eA*d[5mC]*d[5mC]*d[5mC]*dG*d[5mC]*d[5mC]*dG*dG*d[5mC]*dT*d[5mC]*dT*dG*e[5mC]*eT*e[5mC]*eA*eT) [compound 422256]”, for which the “% Inhibition (human Factor 7 mRNA levels)” value is 29%.
Still for that read-out and setting: for “422257 (antisense e[5mC]*e[5mC]*dA*d[5mC]*d[5mC]*d[5mC]*dG*d[5mC]*d[5mC]*dG*dG*d[5mC]*dT*d[5mC]*dT*eG*e[5mC]*eT*e[5mC]*eA) [compound 422257]” the value was 65%.
On to “422258 (antisense eG*e[5mC]*d[5mC]*dA*d[5mC]*d[5mC]*d[5mC]*dG*d[5mC]*d[5mC]*dG*dG*d[5mC]*dT*d[5mC]*eT*eG*e[5mC]*eT*e[5mC]) [compound 422258]”, for which the “% Inhibition (human Factor 7 mRNA levels)” value was 66%.
“422259 (antisense e[5mC]*eG*d[5mC]*d[5mC]*dA*d[5mC]*d[5mC]*d[5mC]*dG*d[5mC]*d[5mC]*dG*dG*d[5mC]*dT*e[5mC]*eT*eG*e[5mC]*eT) [compound 422259]”: the “% Inhibition (human Factor 7 mRNA levels)” value is recorded as 61%.
Consider “422260 (antisense eG*e[5mC]*dG*d[5mC]*d[5mC]*dA*d[5mC]*d[5mC]*d[5mC]*dG*d[5mC]*d[5mC]*dG*dG*d[5mC]*eT*e[5mC]*eT*eG*e[5mC]) [compound 422260]”, for which the “% Inhibition (human Factor 7 mRNA levels)” value stood at 56%.
With “422261 (antisense eT*eG*d[5mC]*dG*d[5mC]*d[5mC]*dA*d[5mC]*d[5mC]*d[5mC]*dG*d[5mC]*d[5mC]*dG*dG*e[5mC]*eT*e[5mC]*eT*eG) [compound 422261]”, the “% Inhibition (human Factor 7 mRNA levels)” value was determined as 47%.
